Results taken from US8105980B1, “Method of increasing the content of flavonoids and phenolic substances substances inplants” (Basf Aktiengesellschaft, priority 1999, dated 2012).

Legend:
[1] = tested on: Apple plants cv. “Weirouge”; assay: Eriodictyol and luteoliflavan content in young apple leaves after treatment (HPLC); type: in vivo; conditions: for Eriodictyol / Luteoliflavan: 250 ppm to runoff, youngest fully developed leaf
Experimental: Apple plants cv. “Weirouge” were grown under controlled-environment conditions and treated to runoff point with 250 ppm prohexadione-calcium (formulated as BAS 125 10 W=wettable granules, content 10%). At various points in time after the treatment, the youngest fully developed leaf was harvested from each individual shoot. The freeze-dried leaves which had been ground using a pestle and mortar were extracted with methanol. Flavonoids and related compounds in the concentrated extract were analyzed by HPLC. Separation was performed on Hypersil ODS (particle size 3 μm) on a 250×4 mm column. Elution was carried out at a flow rate of 0.5 ml per minute, and mixtures of formic acid (5% in water) and methanol, increased stepwise from a ratio of 95:5 to 10:90 (v/v) were used. Phenolic acids and flavonols were detected at 280 nm. Flavan-3-ols were determined by post-column derivatization with p-dimethylaminocinnamaldehyde at 640 nm. For methodological details, see Treutter et al. (1994), Journal of Chromatography A 667, 290-297.

Vines cv. “Dornfelder” = assay: Treatment of Dornfelder vines: ripeness, acid, pigmentation and taste of harvested grapes; type: in vivo, grapevine
Experimental: Vines cv. “Dornfelder” were treated twice at different points in time with the formulation BAS 125 10W, which contains prohexadione-calcium. 1000 g of prohexadione-calcium in 1000 l of spray mixture were applied per ha per treatment.
The 1st application was carried out at developmental stage 73 before the berries developed their color, and the 2nd application 10 days thereafter.
Untreated control: 69° Oechsle, acid: 7.3 g/l; treated control: 67° Oechsle, acid: 7.4 g/l.

apple tissue cultures = conditions: cited from earlier work
shoot tissue of apples = shoot tissue of apples after exposure; cited from earlier work
[2] = two applications of 1000 g/ha in 1000 l spray mixture (BAS 125 10W), at harvest

## prohexadione-calcium
[1]; 12 days after treatment
  Eriodictyol: 17 g/kg dry matter
  Luteoliflavan: 0 g/kg dry matter
[1]; 21 days after treatment
  Eriodictyol: 27 g/kg dry matter
  Luteoliflavan: 34 g/kg dry matter
[1]; after 12 and 21 days
  eriodictyol concentration in treated leaves: markedly increased
Vines cv. “Dornfelder”; compared with untreated grapes
  pigmentation of treated grapes: less pronounced
  taste of treated grapes: no difference was observed
Vines cv. “Dornfelder”; [2]
  acid of harvested grapes: 7.4 g/L
  degree of ripeness of harvested grapes: 67 ° Oechsle
Apple tissue cultures
  content of phenolic substances: increased several times
Shoot tissue of apples
  catechin and cyanidin in treated tissue: not detectable in the treated tissue, or found in considerably reduced amounts only
  luteoliflavan and eriodictyol amounts: relatively large amounts
